From US6599907B1, “Cystic fibrosis medicaments” (University of Wales College of Medicine, priority 1999, dated 2003)
Like-named read-outs stand apart in the source and are kept apart here. Marks after values point to notes of the source that are not given here.

Key:
cyclic AMP = test: Cyclic AMP content of acini (radioimmunoassay); format: cell-based, rat; details: for Cyclic AMP (pmol/mg protein), isoproterenol-stimulated: isoproterenol 10 μM alone or + PDE inhibitor (IBMX, Type III, Type IV 1 mM; Type V 0.2 mM), 5 min, n in parentheses
cyclic GMP = test: Cyclic GMP content of acini (radioimmunoassay); format: cell-based, rat; details: for Cyclic GMP (fmol/mg protein), + Isoproterenol (10 μM) / Cyclic GMP (fmol/mg protein), No Isoproterenol: 5 min, IBMX, Types III, IV 1 mM, Type V 0.2 mM, mean±SEM (n)
PDE V = PDE V (Homo sapiens, UniProt O76074); test: PDE V inhibition; format: biochemical
rat submandibular acini = test: Mucin secretion from rat submandibular acini ([3H]-glucosamine labelled mucin release); details: for Mucin secretion % basal: wild type mucin secretion; for Mucin Secretion (% basal), isoproterenol-stimulated: isoproterenol 10 μM alone or + PDE inhibitor (IBMX, Type III, Type IV 1 mM; Type V 0.2 mM), 30 min, n in parentheses
CFTR [1] = test: Correction of CFTR antibody-inhibited β-adrenergic stimulation of mucin secretion in rat submandibular acini; details: acini containing CFTR antibody; isoproterenol 10 μM + PDE inhibitor (Types III, IV 1 mM; Type V 0.2 mM); 30 min; compared with cpt-cyclic AMP 1 mM
CFTR [2] = details: acini containing CFTR antibody; 1 mM; 'has been shown'; cited from earlier work

Row | SMILES | cyclic AMP % basal (cyclic AMP) | cyclic GMP % basal (cyclic GMP) | IC50 (PDE V; read-out: PDE V IC50) [nM] | Mucin secretion % basal (rat submandibular acini) | IC50 (PDE V) [nM] | Cyclic AMP (pmol/mg protein), isoproterenol-stimulated (cyclic AMP) | Cyclic GMP (fmol/mg protein), + Isoproterenol (10 μM) (cyclic GMP) | Cyclic GMP (fmol/mg protein), No Isoproterenol (cyclic GMP) | Mucin Secretion (% basal), isoproterenol-stimulated (rat submandibular acini) | Correction of the defective β-adrenergic secretory response (FIG. 1) (CFTR [1]) | Restored secretion, % of the secretion response seen in cells containing an equivalent amount of non-immune IgG (CFTR [2]) | Cyclic AMP (pmol/mg protein), isoproterenol-stimulated (cyclic AMP; listed as Type V PDE inhibitor)
1 | CCOc1ccccc1-c1nc2[nH]cnc2c(=O)[nH]1 [f)] | 100 % basal | 110 % basal | 4500 | 160* % basal | – | – | – | – | – | – | – | –
2 | CCOc1ccccc1-c1nc2[nH]c(=O)[nH]c2c(=O)[nH]1 [j)] | 100 % basal | 140* % basal | 1300 | 160* % basal | – | – | – | – | – | – | – | –
3 | CCCOc1ccccc1-c1nc2cnccc2c(=O)[nH]1 [b)] | 600* % basal | 130 % basal | – | 180* % basal | 550 | – | – | – | – | – | – | –
4 | COc1ccc(C2CNC(=O)C2)cc1OC1CCCC1 (stereo not drawn) [Type IV, 4-(3-cyclopentyloxy-4-methoxyphenyl)-2-pyrrolidinone, reference compound] | – | – | – | – | – | **1908.7 ± 150.8 (6) pmol/mg protein | 45.2 ± 2.0 (4) fmol/mg protein | 40.1 ± 1.5 (3) fmol/mg protein | 708 ± 220 (6) % basal | as effective as cpt-cAMP | – | –
5 | COc1ccccc1-c1nc2cccnc2[nH]1 [d)] | 600* % basal | 90 % basal | 34000 | 200* % basal | – | – | – | – | – | – | – | –
6 | CC(C)Cn1c(=O)n(C)c(=O)c2[nH]cnc21 [IBMX, reference compound] | – | – | – | – | – | *1252.9 ± 129.6 (6) pmol/mg protein | **55.6 ± 1.6 (8) fmol/mg protein | 48.1 ± 5.2 (8) fmol/mg protein | 924 ± 290 (6) % basal | – | approx. 75% | –
7 | CNc1ncc2c(=O)[nH]c(-c3ccccc3OC)nc2n1 [c)] | 250* % basal | 90 % basal | 22000 | 160* % basal | – | – | – | – | – | – | – | –
8 | C[C@@H]1CC(=O)NN=C1c1ccc(-n2ccc(=O)cc2)cc1 (racemic) [Type III, (R,S)-4,5-dihydro-6-[4-(1,4-dihydro-4-oxopyridin-1-yl)phenyl]-5-methyl-3(2H)-pyridazinone, reference compound] | – | – | – | – | – | *1009.6 ± 91.5 (6) pmol/mg protein | 47.0 ± 1.8 (4) fmol/mg protein | 39.3 ± 2.4 (3) fmol/mg protein | 692 ± 238 (6) % basal | ineffective | – | –
9 | CCCOc1ccccc1-c1nc2nc(N)ncc2c(=O)[nH]1 [e)] | 350* % basal | 130 % basal | 650 | 170* % basal | – | – | – | – | – | – | – | –
10 | CCCCOc1ccccc1-c1nc2cccnc2[nH]1 [g)] | 160* % basal | 110 % basal | 750 | 200* % basal | – | – | – | – | – | – | – | –
11 | CCCOc1ccccc1-c1nc2[nH]cnc2c(=O)[nH]1 [a)] | 100 % basal | 140 % basal | – | 120 % basal | – | – | – | – | – | – | – | –
12 | CC(C)NCC(O)c1ccc(O)c(O)c1 (stereo not drawn) [Isoproterenol, reference compound] | – | – | – | – | – | 373.0 ± 84.0 (6) pmol/mg protein | 45.2 ± 1.6 (4) fmol/mg protein | – | 785 ± 212 (6) % basal | – | – | –
13 | CCCOc1ccccc1-c1nc2nc(NCC(C)O)ncc2c(=O)[nH]1 (stereo not drawn) [i)] | 100 % basal | 90 % basal | 200 | 170* % basal | – | – | – | – | – | – | – | –
14 | CCCOc1ccccc1-c1nc2[nH]cnc2c(=O)[nH]1 [Type V, 1,7-dihydro-2-(2-propoxyphenyl)-6H-purin-6-one] | – | – | – | – | – | 375.5 ± 95.8 (6) pmol/mg protein | **64.3 ± 3.6 (5) fmol/mg protein | *47.3 ± 2.5 (5) fmol/mg protein | 755 ± 243 (6) % basal | as effective as cpt-cAMP | – | did not potentiate
15 | O=c1[nH]c(-c2ccccc2O)nc2[nH]cnc12 [h)] | 100 % basal | 110 % basal | 48000 | 180* % basal | – | – | – | – | – | – | – | –
